ChEMBL document CHEMBL3885881, “DrugMatrix”

Organism: Rattus norvegicus
Test: DrugMatrix - Regimen: Daily Repeat
Assay type: toxicity, organism-based, Sprague-Dawley
Design: regimen Daily Repeat, gender Male, age 6-8 weeks
Details: in vivo, po, route oral GAVAGE, vehicle 100 % WATER; for ABSOLUTE BASOPHIL / ABSOLUTE EOSINOPHIL / ABSOLUTE LYMPHOCYTE / ABSOLUTE MONOCYTE / ABSOLUTE SEGMENTED NEUTROPHIL / BASOPHIL / EOSINOPHIL / ERYTHROCYTE COUNT / HEMATOCRIT / HEMOGLOBIN / LEUKOCYTE COUNT / LYMPHOCYTE / MEAN CORPUSCULAR HEMOGLOBIN / MEAN CORPUSCULAR HEMOGLOBIN CONCENTRATION / MEAN CORPUSCULAR VOLUME / MONOCYTE / NEUTROPHIL / NUCLEATED RED BLOOD CELLS / PLATELET COUNT: tissue Blood; for ALANINE AMINOTRANSFERASE / ALBUMIN / ALKALINE PHOSPHATASE / ASPARTATE AMINOTRANSFERASE / BLOOD UREA NITROGEN / CARBON DIOXIDE / CHLORIDE / CHOLESTEROL / CREATINE PHOSPHOKINASE / CREATININE / GLUCOSE / LACTATE DEHYDROGENASE / LIPASE / PHOSPHORUS / POTASSIUM / SODIUM / TOTAL BILIRUBIN / TOTAL PROTEIN / URIC ACID: tissue Plasma
[1] = 3 mg/kg, 120 h, dose level Low, time 5 day
[2] = 47 mg/kg, 72 h, dose level High, time 3 day
[3] = 47 mg/kg, 120 h, dose level High, time 5 day

CN(C)CC[C@@H](c1ccc(Cl)cc1)c1ccccn1 [DEXCHLORPHENIRAMINE]
ABSOLUTE BASOPHIL [1]: 0 CELLS/uL
ABSOLUTE EOSINOPHIL [1]: 0 CELLS/uL
ABSOLUTE LYMPHOCYTE [1]: 15600.33 CELLS/uL
ABSOLUTE MONOCYTE [1]: 181.67 CELLS/uL
ABSOLUTE SEGMENTED NEUTROPHIL [1]: 884.67 CELLS/uL
BASOPHIL [1]: 0%
EOSINOPHIL [1]: 0%
ERYTHROCYTE COUNT [1]: 5.61 x10E6/uL
HEMATOCRIT [1]: 35.43%
HEMOGLOBIN [1]: 14.3 G/DL
LEUKOCYTE COUNT [1]: 16.67 x10E3/uL
LYMPHOCYTE [1]: 93.67%
MEAN CORPUSCULAR HEMOGLOBIN [1]: 25.5 pg
MEAN CORPUSCULAR HEMOGLOBIN CONCENTRATION [1]: 40.33 G/DL
MEAN CORPUSCULAR VOLUME [1]: 63.17 fL
MONOCYTE [1]: 1%
NEUTROPHIL [1]: 5.33%
NUCLEATED RED BLOOD CELLS [1]: 0.33 /100WBC
PLATELET COUNT [1]: 1254.33 x10E3/uL
ALANINE AMINOTRANSFERASE [1]: 55.33 u/L
ALBUMIN [1]: 4.17 G/DL
ALKALINE PHOSPHATASE [1]: 407 u/L
ASPARTATE AMINOTRANSFERASE [1]: 86.33 u/L
BLOOD UREA NITROGEN [1]: 15 mg/dL
CARBON DIOXIDE [1]: 32 mmol/L
CHLORIDE [1]: 102 MEQ/L
CHOLESTEROL [1]: 63.33 mg/dL
CREATINE PHOSPHOKINASE [1]: 451.67 u/L
CREATININE [1]: 0.18 mg/dL
GLUCOSE [1]: 121.33 mg/dL
LACTATE DEHYDROGENASE [1]: 251 u/L
LIPASE [1]: 10.33 u/L
PHOSPHORUS [1]: 12.1 mg/dL
POTASSIUM [1]: 6.1 MEQ/L
SODIUM [1]: 144.9 MEQ/L
TOTAL BILIRUBIN [1]: 0.23 mg/dL
TOTAL PROTEIN [1]: 6.07 G/DL
URIC ACID [1]: 1.37 mg/dL
ABSOLUTE BASOPHIL [2]: 0 CELLS/uL
ABSOLUTE EOSINOPHIL [2]: 62.67 CELLS/uL
ABSOLUTE LYMPHOCYTE [2]: 12240 CELLS/uL
ABSOLUTE MONOCYTE [2]: 133 CELLS/uL
ABSOLUTE SEGMENTED NEUTROPHIL [2]: 864.33 CELLS/uL
BASOPHIL [2]: 0%
EOSINOPHIL [2]: 0.67%
ERYTHROCYTE COUNT [2]: 5.93 x10E6/uL
HEMATOCRIT [2]: 38.13%
HEMOGLOBIN [2]: 14.77 G/DL
LEUKOCYTE COUNT [2]: 13.3 x10E3/uL
LYMPHOCYTE [2]: 91.33%
MEAN CORPUSCULAR HEMOGLOBIN [2]: 24.9 pg
MEAN CORPUSCULAR HEMOGLOBIN CONCENTRATION [2]: 38.73 G/DL
MEAN CORPUSCULAR VOLUME [2]: 64.3 fL
MONOCYTE [2]: 1%
NEUTROPHIL [2]: 7%
NUCLEATED RED BLOOD CELLS [2]: 0 /100WBC
PLATELET COUNT [2]: 1535.33 x10E3/uL
ALANINE AMINOTRANSFERASE [2]: 44.33 u/L
ALBUMIN [2]: 4.03 G/DL
ALKALINE PHOSPHATASE [2]: 352 u/L
ASPARTATE AMINOTRANSFERASE [2]: 75 u/L
BLOOD UREA NITROGEN [2]: 14.67 mg/dL
CARBON DIOXIDE [2]: 33.67 mmol/L
CHLORIDE [2]: 102 MEQ/L
CHOLESTEROL [2]: 65 mg/dL
CREATINE PHOSPHOKINASE [2]: 246.67 u/L
CREATININE [2]: 0.17 mg/dL
GLUCOSE [2]: 153.67 mg/dL
LACTATE DEHYDROGENASE [2]: 134 u/L
LIPASE [2]: 10.67 u/L
PHOSPHORUS [2]: 12.47 mg/dL
POTASSIUM [2]: 6.39 MEQ/L
SODIUM [2]: 145.23 MEQ/L
TOTAL BILIRUBIN [2]: 0.17 mg/dL
TOTAL PROTEIN [2]: 5.97 G/DL
URIC ACID [2]: 1.93 mg/dL
ABSOLUTE BASOPHIL [3]: 0 CELLS/uL
ABSOLUTE EOSINOPHIL [3]: 0 CELLS/uL
ABSOLUTE LYMPHOCYTE [3]: 14891.67 CELLS/uL
ABSOLUTE MONOCYTE [3]: 0 CELLS/uL
ABSOLUTE SEGMENTED NEUTROPHIL [3]: 875 CELLS/uL
BASOPHIL [3]: 0%
EOSINOPHIL [3]: 0%
ERYTHROCYTE COUNT [3]: 6.11 x10E6/uL
HEMATOCRIT [3]: 38.9%
HEMOGLOBIN [3]: 14.93 G/DL
LEUKOCYTE COUNT [3]: 15.77 x10E3/uL
LYMPHOCYTE [3]: 94.33%
MEAN CORPUSCULAR HEMOGLOBIN [3]: 24.47 pg
MEAN CORPUSCULAR HEMOGLOBIN CONCENTRATION [3]: 38.37 G/DL
MEAN CORPUSCULAR VOLUME [3]: 63.73 fL
MONOCYTE [3]: 0%
NEUTROPHIL [3]: 5.67%
NUCLEATED RED BLOOD CELLS [3]: 0 /100WBC
PLATELET COUNT [3]: 1215 x10E3/uL
ALANINE AMINOTRANSFERASE [3]: 35.67 u/L
ALBUMIN [3]: 4.17 G/DL
ALKALINE PHOSPHATASE [3]: 323 u/L
ASPARTATE AMINOTRANSFERASE [3]: 76.67 u/L
BLOOD UREA NITROGEN [3]: 14.67 mg/dL
CARBON DIOXIDE [3]: 30.67 mmol/L
CHLORIDE [3]: 101.33 MEQ/L
CHOLESTEROL [3]: 61.67 mg/dL
CREATINE PHOSPHOKINASE [3]: 322 u/L
CREATININE [3]: 0.13 mg/dL
GLUCOSE [3]: 169.67 mg/dL
LACTATE DEHYDROGENASE [3]: 202.67 u/L
LIPASE [3]: 11 u/L
PHOSPHORUS [3]: 12.57 mg/dL
POTASSIUM [3]: 5.79 MEQ/L
SODIUM [3]: 144.7 MEQ/L
TOTAL BILIRUBIN [3]: 0.2 mg/dL
TOTAL PROTEIN [3]: 6.33 G/DL
URIC ACID [3]: 1.57 mg/dL
